For series [1], the system named is SUDHL10. Nature of the series: Induction of caspase-3/7 activity (Assay 4), SUDHL10. The note with it: caspase-3/7 induction, median. It is filed as cell-based. The procedure, abridged:
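Caspase-3/7 activity measured by Caspase-Glo 3/7 luminescence in DLBCL cells after 3 h compound treatment at 37 °C. Medium-only background subtracted. EC50 fitted with C0 fixed at 1 and top set to the reference compound's plateau/max induction.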

In the next series the target is MCL-1 (Homo sapiens (Human), UniProt Q07820, K194A/K197A/R201A). Nature of the series: Protein-protein interaction assay MCL-1/Noxa BH3 peptide (MCL-1 assay, TR-FRET). It is filed as binding. The note with it: MBP-MCL-1 / Noxa BH3 peptide, median. The procedure, abridged: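 MBP-fused MCL-1 (aa 173-329, 1 nM) was pre-incubated with compound for 10 min at 22° C, then biotinylated Noxa BH3 peptide (1 nM) was added with anti-MBP-Eu cryptate and streptavidin-XL665. Incubation was 1 h at 22° C, then overnight at 4° C, in Tris pH 7 buffer. The 665/620 nm ratio over 11 concentrations (0.1 nM-20 μM) gave IC50 by 4-parameter fit.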
Background: TR-FRET usually uses a lanthanide donor and a delayed reading to cut background.

The subject of series [2] is SUDHL10. Nature of the series: Induction of cytotoxicity (Assay 6), SUDHL10. As to conditions: read-out: Cytotox SUDHL10 [M] (median) IC50, CellTiter-Glo, 5 hours, SUDHL10. For orientation: In ATP-based viability assays light output follows the ATP content of the culture.
Description: Assay 6 Induction of Cytotoxicity Upon Treatment of Cells with Selected Compounds
Therefore, cytotoxicity assays were run in parallel in SUDHL5 and SUDHL10 cells.
The different cell lines were plated in culture medium (RPMI 1640 [GIBCO #22400-089] supplemented with 10% Fetal Bovine Serum) at a density of 3,300 cells in 30 μl/well in a sterile, solid black, flat bottom, polystyrene, TC-treated 384-well microplate (Corning #3571) using Multidrop Combi Reagent Dispenser. As a control, medium without cells was also added to the plate. Cells were incubated in a humidified incubator at 37° C. overnight. On the next day, the cells were treated with compounds (stock solution, 10 mM in DMSO) using the HP D300 Digital Dispenser in a concentration range of 3.3×10e-5 M (33 μM) to 5×10e-9 M (5 nM) in a single-dot curve with at least 16 dilutions and a DMSO concentration of 0.33%. Rim wells were excluded. The cells were incubated for 5 hours in a humidified incubator at 37° C. After this incubation, 30 μl of CellTiter-Glo® Luminescent Cell Viability reagent (Promega, G7573) was added to each well using the Multidrop Combi Reagent Dispenser, followed by 15 minutes incubation on a shaker at room temperature. Finally, luminescence was read at 0.1 ms, with a gain of 3000 using the PHERAstar FS microplate reader (BMG Labtech).

In general, EC50 refers to the concentration needed to bring the measured effect to its halfway point. As usually defined, the IC50 is the concentration that gives 50% inhibition.

Structures can show the parent of a compound that is named as a salt. Where two headings read alike, the source gives them in different places.

Sequence of MCL-1 (Q07820 whole entry K194A/K197A/R201A, looked up, the tested form may be a part): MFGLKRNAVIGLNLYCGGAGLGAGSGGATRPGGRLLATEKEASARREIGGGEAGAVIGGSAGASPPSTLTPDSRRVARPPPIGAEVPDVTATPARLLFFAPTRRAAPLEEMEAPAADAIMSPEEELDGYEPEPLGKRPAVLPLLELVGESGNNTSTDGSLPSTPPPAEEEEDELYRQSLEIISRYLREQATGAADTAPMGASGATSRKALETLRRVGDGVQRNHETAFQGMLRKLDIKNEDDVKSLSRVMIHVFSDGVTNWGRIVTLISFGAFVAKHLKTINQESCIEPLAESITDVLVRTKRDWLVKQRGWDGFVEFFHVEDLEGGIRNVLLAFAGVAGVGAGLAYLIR

The compound `Cc1c2c(nn1C)C(CCN1CCOCC1)N(C)S(=O)(=O)CCCn1c(C(=O)O)c(CCCOc3cccc4cc(F)ccc34)c3ccc(Cl)c-2c31` (racemic) [Example 48, (rac)-4-chloro-7-{3-[(6-fluoro-1-naphthyl)oxy]propyl}-2,3,14-trimethyl-15-(rac)-[2-(morpholin-4-yl)ethyl]-11,12,14,15-tetrahydro-2H,10H-pyrazolo[3′,4′:4,5][1,2,8]thiadiazacycloundecino[6,7,8-hi]indole-8-carboxylic acid 13,13-dioxide (Mixture of Stereoisomers)] came in with an EC50 in the series on SUDHL10 [1] (3 hours) of 0.0097 µM. Also, the IC50 against MCL-1 turned out to be 0.00093 µM; in the series with SUDHL10 [2], 1.2e-08 M.

In the series with SUDHL10 [1] (3 hours), `Cc1c2c(nn1C)C(CCN1CCOCC1)N(C)S(=O)(=O)CCCn1c(C(=O)O)c(CCCOc3cccc4cc(F)ccc34)c3ccc(Cl)c-2c31` (racemic) [Example 65, (rac)-4-chloro-7-{3-[(6-fluoronaphthalen-1-yl)oxy]propyl}-2,3,14-trimethyl-15-(rac)-[2-(morpholin-4-yl)ethyl]-13,13-dioxo-10,11,12,13,14,15-hexahydro-2H-13lambda^6-pyrazolo[3′,4′:4,5][1,2,8]thiadiazacycloundecino[6,7,8-hi]indole-8-carboxylic acid (Mixture of Stereoisomers)] had an EC50 of 0.06 µM. Also, the IC50 at MCL-1 amounted to 0.00094 µM; in the series on SUDHL10 [2], 1e-07 M.

Take `CCc1c2c(nn1C)CN(C)S(=O)(=O)CCCn1c(C(=O)O)c(CCCOc3cccc4ccccc34)c3ccc(F)c-2c31` (racemic) [Example 31, (rac)-12-Ethyl-13-fluoro-8,11-dimethyl-1-(3-(naphthalen-1-yloxy)propyl)-5,6,9,11-tetrahydro-4H,8H-pyrazolo[3′,4′:4,5][1]thia[2,8]diazacycloundecino[6,7,8-hi]indole-2-carboxylic acid 7,7-dioxide]: in the series on SUDHL10 [1] (Homo sapiens, SU-DHL10, 3 h), the EC50 stood at 1.9 µM. Moreover, the IC50 against MCL-1 came to 0.0036 µM; with SUDHL10 [2] (Homo sapiens, SU-DHL10, 5 h), 1.9e-06 M.

On to `CCc1c2c(nn1C)CN(C1CC1)S(=O)(=O)CCCn1c(C(=O)O)c(CCCOc3cccc4cc(F)ccc34)c3ccc(Cl)c-2c31` (racemic) [Example 53, (rac)-4-chloro-14-cyclopropyl-3-ethyl-7-{3-[(6-fluoro-1-naphthyl)oxy]propyl}-2-methyl-11,12,14,15-tetrahydro-2H,10H-pyrazolo[3′,4′:4,5][1,2,8]thiadiazacycloundecino[6,7,8-hi]indole-8-carboxylic acid 13,13-dioxide], for which, in the series on SUDHL10 [1] (3 hours), the half-maximal effective concentration (EC50) was 0.77 µM. Besides, the IC50 was determined as 0.0017 µM at MCL-1 and 9e-07 M in the series on SUDHL10 [2].

Take `Cc1c2c(nn1C)CN(C1CC1)S(=O)(=O)CCCn1c(C(=O)O)c(CCCOc3cccc4cc(F)ccc34)c3ccc(Cl)c-2c31` (single isomer, unassigned; enantiomer 1) [Example 42, (−)-4-chloro-14-cyclopropyl-7-{3-[(6-fluoro-1-naphthyl)oxy]propyl}-2,3-dimethyl-11,12,14,15-tetrahydro-2H,10H-pyrazolo[3′,4′:4,5][1,2,8]thiadiazacycloundecino[6,7,8-hi]indole-8-carboxylic acid 13,13-dioxide N-diethylamine salt (Enantiomer 1)]: the half-maximal effective concentration (EC50) with SUDHL10 [1] (3 hours) was determined as 0.29 µM. Further, the IC50 on MCL-1 was found to be 0.00034 µM; in the series with SUDHL10 [2], 3.5e-07 M.

On to `CCc1c2c(nn1C)C(CCC1CCOCC1)N(C)S(=O)(=O)CCCn1c(C(=O)O)c(CCCOc3cccc4cc(F)ccc34)c3ccc(Cl)c-2c31` (single isomer, unassigned; enantiomer 4) [Example 64, (−)-4-chloro-3-ethyl-7-{3-[(6-fluoronaphthalen-1-yl)oxy]propyl}-2,14-dimethyl-15-[2-(oxan-4-yl)ethyl]-13,13-dioxo-10,11,12,13,14,15-hexahydro-2H-13lambda^6-pyrazolo[3′,4′:4,5][1,2,8]thiadiazacycloundecino[6,7,8-hi]indole-8-carboxylic acid (Enantiomer 4)], for which the EC50 with SUDHL10 [1] (3 hours) was found to be 1.6 µM. Further, the results for the half-maximal inhibitory concentration (IC50) at MCL-1 and in the series with SUDHL10 [2] were 0.021 µM and 2.9e-06 M, respectively.

Take `CCc1c2c(nn1C)CN(C)S(=O)(=O)CCCn1c(C(=O)O)c(CCCOc3cccc4c3CCCC4)c3ccc(Cl)c-2c31` [Example 23, (rac)-13-Chloro-12-ethyl-8,11-dimethyl-1-(3-((5,6,7,8-tetrahydronaphthalen-1-yl)oxy)propyl)-4,5,6,8,9,11-hexahydropyrazolo[3′,4′:4,5][1,2,8]thiadiazacycloundecino[6,7,8-hi]indole-2-carboxylic acid 7,7-dioxide]: the midpoint of the response with SUDHL10 [1] (Homo sapiens, SU-DHL10, 3 h), the EC50, lay at 2.3 µM. The IC50 at MCL-1 amounted to 0.0033 µM; in the series on SUDHL10 [2] (Homo sapiens, SU-DHL10, 5 h), 2.5e-06 M.

`CCc1c2c(nn1C)CN(CCN1CCCCC1)S(=O)(=O)CCCn1c(C(=O)O)c(CCCOc3cccc4ccccc34)c3cccc-2c31` (racemic) [Example 14, (rac)-12-Ethyl-11-methyl-1-(3-(naphthalen-1-yloxy)propyl)-8-(2-(piperidin-1-yl)ethyl)-4,5,6,8,9,11-hexahydropyrazolo[3′,4′:4,5][1,2,8]thiadiazacycloundecino[6,7,8-hi]indole-2-carboxylic acid 7,7-dioxide 2,2,2-trifluoroacetic acid salt] gave an EC50 in the series with SUDHL10 [1] (Homo sapiens, SU-DHL10, 3 h) of 9.2 µM. Moreover, the IC50 turned out to be 0.0098 µM against MCL-1 and 8.5e-06 M with SUDHL10 [2] (Homo sapiens, SU-DHL10, 5 h).

As for `Cc1c2c(nn1C)C(CCN1CCOCC1)N(C)S(=O)(=O)CCCn1c(C(=O)O)c(CCCOc3cccc4ccccc34)c3cccc-2c31` (racemic) [Example 44, (rac)-2,3,14-trimethyl-15-[2-(rac)-(morpholin-4-yl)ethyl]-7-[3-(1-naphthyloxy)propyl]-11,12,14,15-tetrahydro-2H,10H-pyrazolo[3′,4′:4,5][1,2,8]thiadiazacycloundecino[6,7,8-hi]indole-8-carboxylic acid 13,13-dioxide (Mixture of Stereoisomers)], the midpoint of the response in the series on SUDHL10 [1] (Homo sapiens, SU-DHL10, 3 h), the EC50, lay at 1.7 µM. Further, the IC50 against MCL-1 stood at 0.003 µM; in the series with SUDHL10 [2] (Homo sapiens, SU-DHL10, 5 h), 2.6e-06 M.

The compound `CCc1c2c(nn1C)C(CCC1CCOCC1)N(C)S(=O)(=O)CCCn1c(C(=O)O)c(CCCOc3cccc4cc(F)ccc34)c3ccc(Cl)c-2c31` (single isomer, unassigned; enantiomer 1) [Example 61, (+)-4-chloro-3-ethyl-7-{3-[(6-fluoronaphthalen-1-yl)oxy]propyl}-2,14-dimethyl-15-[2-(oxan-4-yl)ethyl]-13,13-dioxo-10,11,12,13,14,15-hexahydro-2H-13lambda^6-pyrazolo[3′,4′:4,5][1,2,8]thiadiazacycloundecino[6,7,8-hi]indole-8-carboxylic acid (Enantiomer 1)] gave an EC50 in the series on SUDHL10 [1] (3 hours) of 0.024 µM. Also, the IC50 at MCL-1 was 0.00094 µM; in the series with SUDHL10 [2], 4.9e-08 M.

Regarding `CCc1c2c(nn1C)CN(C)S(=O)(=O)CCCn1c(C(=O)O)c(CCCOc3cccc4ccccc34)c3ccc(Cl)c-2c31` [Example 20, (rac)-13-Chloro-12-ethyl-8,11-dimethyl-1-(3-(naphthalen-1-yloxy)propyl)-5,6,9,11-tetrahydro-4H,8H-pyrazolo[3′,4′:4,5][1]thia[2,8]diazacycloundecino[6,7,8-hi]indole-2-carboxylic acid 7,7-dioxide], the EC50 in the series on SUDHL10 [1] (Homo sapiens, SU-DHL10, 3 h) was 2.1 µM. Further, the IC50 was determined as 0.0027 µM against MCL-1 and 1.7e-06 M with SUDHL10 [2] (Homo sapiens, SU-DHL10, 5 h).

In the series on SUDHL10 [1] (3 hours), `CCc1c2c(nn1C)CN(C)S(=O)(=O)CCCn1c(C(=O)O)c(CCCOc3cccc4cc(F)ccc34)c3ccc(Cl)c-2c31` (single isomer, unassigned; enantiomer 2) [Example 37, (−)-4-chloro-3-ethyl-7-{3-[(6-fluoronaphthalen-1-yl)oxy]propyl}-2,14-dimethyl-13,13-dioxo-10,11,12,13,14,15-hexahydro-2H-13lambda^6-pyrazolo[3′,4′:4,5][1,2,8]thiadiazacycloundecino-[6,7,8-hi]indole-8-carboxylic acid (Enantiomer 2)] returned an EC50 of 12 µM. The IC50 against MCL-1 was determined as 0.011 µM; in the series on SUDHL10 [2], 9e-06 M.

Regarding `CCc1c2c(nn1C)CN(C)S(=O)(=O)CCCn1c(C(=O)O)c(CCCOc3cccc4cc(F)ccc34)c3ccc(F)c-2c31` (racemic) [Example 7, (rac)-12-Ethyl-13-fluoro-1-(3-((6-fluoronaphthalen-1-yl)oxy)propyl)-8,11-dimethyl-5,6,9,11-tetrahydro-4H,8H-pyrazolo[3′,4′:4,5][1]thia[2,8]diazacycloundecino[6,7,8-hi]indole-2-carboxylic acid 7,7-dioxide], in the series with SUDHL10 [1] (Homo sapiens, SU-DHL10, 3 h), a half-maximal response (EC50) required 0.74 µM. The IC50 turned out to be 0.0013 µM against MCL-1 and 9.1e-07 M in the series on SUDHL10 [2] (Homo sapiens, SU-DHL10, 5 h).

In the series with SUDHL10 [1] (Homo sapiens, SU-DHL10, 3 h), `CCc1c2c(nn1C)CN(C)S(=O)(=O)CCCn1c(C(=O)O)c(CCCOc3cccc4c3CCCC4)c3ccc(F)c-2c31` (racemic) [Example 34, (rac)-12-Ethyl-13-fluoro-8,11-dimethyl-1-(3-((5,6,7,8-tetrahydronaphthalen-1-yl)oxy)propyl)-5,6,9,11-tetrahydro-4H,8H-pyrazolo[3′,4′:4,5][1]thia[2,8]diazacycloundecino[6,7,8-hi]indole-2-carboxylic acid 7,7-dioxide] came in with a concentration giving a half-maximal response (EC50) of 3.6 µM. Also, the concentration for half-maximal inhibition (IC50) stood at 0.0032 µM against MCL-1 and 2.4e-06 M with SUDHL10 [2] (Homo sapiens, SU-DHL10, 5 h).
